From the kinase profiling compilation of Christmann-Franck et al. (2016)
Where “and” joins values, the source holds several entries; their conditions need not be identical. Equal entries are not always repeated.

Key:
Assay in all cases: radiometric filter-binding kinase assay, Kinase HotSpot
Settings in all cases: compound 0.5 µM; ATP 10 µM
[1] = molecular target: ACVR1 (human) (UniProt Q04771)
[2] = molecular target: BRSK2 (human) (UniProt Q8IWQ3)
[3] = molecular target: CAMK1D (human) (UniProt Q8IU85)
CAMK1D (human), sequence (Q8IU85 whole entry, looked up): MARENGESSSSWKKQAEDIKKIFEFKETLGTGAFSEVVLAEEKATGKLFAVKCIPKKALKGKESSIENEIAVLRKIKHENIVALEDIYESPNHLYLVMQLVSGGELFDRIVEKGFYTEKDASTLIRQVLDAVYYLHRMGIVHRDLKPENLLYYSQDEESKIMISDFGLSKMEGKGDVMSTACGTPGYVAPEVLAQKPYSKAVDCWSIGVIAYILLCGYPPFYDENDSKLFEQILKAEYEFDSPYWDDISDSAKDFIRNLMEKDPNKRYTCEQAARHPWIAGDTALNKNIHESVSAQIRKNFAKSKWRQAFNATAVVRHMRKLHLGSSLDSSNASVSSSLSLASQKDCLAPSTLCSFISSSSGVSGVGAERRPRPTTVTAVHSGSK

[4] = molecular target: CAMK1G (human) (UniProt Q96NX5)
[5] = molecular target: CAMK2G (human) (UniProt Q13555)
[6] = molecular target: CSNK1A1 (human) (UniProt P48729)
[7] = molecular target: DDR2 (human) (UniProt Q16832)
[8] = molecular target: DYRK1B (human) (UniProt Q9Y463)
[9] = molecular target: DYRK2 (human) (UniProt Q92630)
[10] = molecular target: EPHA2 (human) (UniProt P29317)
[11] = molecular target: EPHB3 (human) (UniProt P54753)
[12] = molecular target: FGFR3 (human) (UniProt P22607)
[13] = molecular target: GRK4 (human) (UniProt P32298)
[14] = molecular target: HCK (human) (UniProt P08631)
[15] = molecular target: HIPK1 (human) (UniProt Q86Z02)
[16] = molecular target: JAK3 JH1 JH2 (human) (UniProt P52333)
[17] = molecular target: MAP3K3 (human) (UniProt Q99759)
[18] = molecular target: MAPK12 (human) (UniProt P53778)
[19] = molecular target: MAPK8 (human) (UniProt P45983)
[20] = molecular target: MAPKAPK5 (human) (UniProt Q8IW41)
[21] = molecular target: MARK3 (human) (UniProt P27448)
[22] = molecular target: MET (human) (UniProt P08581)
MET (human), sequence (P08581 whole entry, looked up): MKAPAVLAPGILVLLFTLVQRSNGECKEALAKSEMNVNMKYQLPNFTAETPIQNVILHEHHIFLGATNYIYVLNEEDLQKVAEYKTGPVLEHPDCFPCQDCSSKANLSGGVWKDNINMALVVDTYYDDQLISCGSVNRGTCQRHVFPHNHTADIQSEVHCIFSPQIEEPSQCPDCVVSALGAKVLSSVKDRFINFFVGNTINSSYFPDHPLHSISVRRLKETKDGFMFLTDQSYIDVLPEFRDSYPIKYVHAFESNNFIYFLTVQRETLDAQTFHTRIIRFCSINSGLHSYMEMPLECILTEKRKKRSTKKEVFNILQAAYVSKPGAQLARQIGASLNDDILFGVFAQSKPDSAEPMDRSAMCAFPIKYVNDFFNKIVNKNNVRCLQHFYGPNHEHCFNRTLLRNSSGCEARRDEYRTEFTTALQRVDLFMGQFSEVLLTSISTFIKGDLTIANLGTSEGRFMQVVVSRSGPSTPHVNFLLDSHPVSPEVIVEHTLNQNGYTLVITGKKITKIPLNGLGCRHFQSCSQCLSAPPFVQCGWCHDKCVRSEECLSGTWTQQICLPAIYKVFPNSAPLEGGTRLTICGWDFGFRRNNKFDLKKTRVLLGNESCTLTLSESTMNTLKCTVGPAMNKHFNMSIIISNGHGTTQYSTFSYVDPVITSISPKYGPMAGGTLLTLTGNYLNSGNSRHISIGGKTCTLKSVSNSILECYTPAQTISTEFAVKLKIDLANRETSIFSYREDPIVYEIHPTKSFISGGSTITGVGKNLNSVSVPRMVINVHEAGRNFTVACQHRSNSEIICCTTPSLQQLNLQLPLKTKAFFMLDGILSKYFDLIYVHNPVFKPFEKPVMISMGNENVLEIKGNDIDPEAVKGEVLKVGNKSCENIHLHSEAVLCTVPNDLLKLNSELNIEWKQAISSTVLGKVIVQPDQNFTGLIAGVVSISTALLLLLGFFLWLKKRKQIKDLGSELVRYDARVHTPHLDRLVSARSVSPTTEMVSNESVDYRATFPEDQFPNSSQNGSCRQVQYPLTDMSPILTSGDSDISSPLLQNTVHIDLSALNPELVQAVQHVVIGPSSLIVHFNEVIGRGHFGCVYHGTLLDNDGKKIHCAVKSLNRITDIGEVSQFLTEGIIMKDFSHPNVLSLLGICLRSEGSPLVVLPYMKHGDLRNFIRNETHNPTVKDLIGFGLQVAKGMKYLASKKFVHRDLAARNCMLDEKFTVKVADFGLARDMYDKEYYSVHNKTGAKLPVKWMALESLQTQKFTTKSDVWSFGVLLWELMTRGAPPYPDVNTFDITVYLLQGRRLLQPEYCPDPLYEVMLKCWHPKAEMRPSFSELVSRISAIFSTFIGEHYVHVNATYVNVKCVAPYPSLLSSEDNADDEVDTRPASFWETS

[23] = molecular target: MINK1 (human) (UniProt Q8N4C8)
[24] = molecular target: MST4 (human) (UniProt Q9P289)
MST4 (human), sequence (Q9P289 whole entry, looked up): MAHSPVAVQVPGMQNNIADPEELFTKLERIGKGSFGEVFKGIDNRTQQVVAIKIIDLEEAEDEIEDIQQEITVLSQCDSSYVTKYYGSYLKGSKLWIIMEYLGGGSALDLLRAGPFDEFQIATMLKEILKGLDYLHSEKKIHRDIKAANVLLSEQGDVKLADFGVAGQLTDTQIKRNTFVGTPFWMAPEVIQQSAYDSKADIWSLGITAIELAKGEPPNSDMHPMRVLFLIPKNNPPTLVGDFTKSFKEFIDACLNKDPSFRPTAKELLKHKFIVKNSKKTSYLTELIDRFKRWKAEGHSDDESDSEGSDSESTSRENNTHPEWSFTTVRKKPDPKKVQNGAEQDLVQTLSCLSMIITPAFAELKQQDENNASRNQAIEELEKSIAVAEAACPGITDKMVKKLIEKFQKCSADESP

[25] = molecular target: NEK1 (human) (UniProt Q96PY6)
[26] = molecular target: NEK11 (human) (UniProt Q8NG66)
[27] = molecular target: NEK7 (human) (UniProt Q8TDX7)
[28] = molecular target: NLK (human) (UniProt Q9UBE8)
[29] = molecular target: NTRK1 (human) (UniProt P04629)
NTRK1 (human), sequence (P04629 whole entry, looked up): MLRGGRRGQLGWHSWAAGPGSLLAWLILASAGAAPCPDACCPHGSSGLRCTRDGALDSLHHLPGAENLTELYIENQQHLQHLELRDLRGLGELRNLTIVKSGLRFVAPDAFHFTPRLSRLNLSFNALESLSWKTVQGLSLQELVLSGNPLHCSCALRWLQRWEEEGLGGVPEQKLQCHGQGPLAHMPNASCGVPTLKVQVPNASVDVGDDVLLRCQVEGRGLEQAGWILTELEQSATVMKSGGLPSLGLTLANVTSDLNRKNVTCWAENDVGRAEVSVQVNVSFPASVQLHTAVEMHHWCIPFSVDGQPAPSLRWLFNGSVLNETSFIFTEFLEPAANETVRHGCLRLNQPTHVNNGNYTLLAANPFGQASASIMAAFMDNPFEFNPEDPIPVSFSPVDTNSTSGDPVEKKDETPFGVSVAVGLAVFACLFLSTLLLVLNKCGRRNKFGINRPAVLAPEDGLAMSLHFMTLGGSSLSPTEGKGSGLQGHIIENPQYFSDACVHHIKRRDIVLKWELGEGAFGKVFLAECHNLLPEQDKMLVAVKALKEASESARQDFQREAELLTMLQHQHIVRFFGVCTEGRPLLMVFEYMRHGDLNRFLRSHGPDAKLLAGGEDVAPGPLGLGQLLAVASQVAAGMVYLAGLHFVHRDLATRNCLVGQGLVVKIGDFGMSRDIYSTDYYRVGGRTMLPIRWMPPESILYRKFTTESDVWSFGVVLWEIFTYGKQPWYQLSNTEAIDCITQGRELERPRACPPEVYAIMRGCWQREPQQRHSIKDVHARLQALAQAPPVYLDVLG

[30] = molecular target: NTRK3 (human) (UniProt Q16288)
[31] = molecular target: PDGFRA (human) (UniProt P16234)
[32] = molecular target: PNCK (human) (UniProt Q6P2M8)
[33] = molecular target: PRKCZ (human) (UniProt Q05513)
[34] = molecular target: PRKD1 (human) (UniProt Q15139)
[35] = molecular target: PRKD2 (human) (UniProt Q9BZL6)
[36] = molecular target: PRKG1 (human) (UniProt Q13976)
PRKG1 (human), sequence (Q13976 whole entry, looked up): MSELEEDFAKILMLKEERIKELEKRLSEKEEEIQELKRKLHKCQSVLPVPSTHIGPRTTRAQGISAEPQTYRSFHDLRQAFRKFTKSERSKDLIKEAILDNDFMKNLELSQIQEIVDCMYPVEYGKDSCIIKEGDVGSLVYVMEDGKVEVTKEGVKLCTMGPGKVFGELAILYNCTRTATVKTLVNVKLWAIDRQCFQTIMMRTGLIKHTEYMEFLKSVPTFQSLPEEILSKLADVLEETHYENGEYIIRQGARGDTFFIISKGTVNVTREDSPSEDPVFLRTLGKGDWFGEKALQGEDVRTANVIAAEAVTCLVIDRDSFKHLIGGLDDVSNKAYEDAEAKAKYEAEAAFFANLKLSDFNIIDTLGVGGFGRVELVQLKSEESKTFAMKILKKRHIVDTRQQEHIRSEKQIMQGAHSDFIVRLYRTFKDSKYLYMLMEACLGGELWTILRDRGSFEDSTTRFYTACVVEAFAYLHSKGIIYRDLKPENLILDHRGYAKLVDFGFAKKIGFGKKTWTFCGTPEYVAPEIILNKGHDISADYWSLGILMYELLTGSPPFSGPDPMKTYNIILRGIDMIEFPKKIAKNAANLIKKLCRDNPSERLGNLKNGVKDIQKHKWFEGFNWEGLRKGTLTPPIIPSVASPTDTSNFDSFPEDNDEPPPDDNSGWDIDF

[37] = molecular target: PTK2 (human) (UniProt Q05397)
[38] = molecular target: RPS6KA1 KD1 KD2 (human) (UniProt Q15418)
RPS6KA1 KD1 KD2 (human), sequence (Q15418 whole entry, looked up): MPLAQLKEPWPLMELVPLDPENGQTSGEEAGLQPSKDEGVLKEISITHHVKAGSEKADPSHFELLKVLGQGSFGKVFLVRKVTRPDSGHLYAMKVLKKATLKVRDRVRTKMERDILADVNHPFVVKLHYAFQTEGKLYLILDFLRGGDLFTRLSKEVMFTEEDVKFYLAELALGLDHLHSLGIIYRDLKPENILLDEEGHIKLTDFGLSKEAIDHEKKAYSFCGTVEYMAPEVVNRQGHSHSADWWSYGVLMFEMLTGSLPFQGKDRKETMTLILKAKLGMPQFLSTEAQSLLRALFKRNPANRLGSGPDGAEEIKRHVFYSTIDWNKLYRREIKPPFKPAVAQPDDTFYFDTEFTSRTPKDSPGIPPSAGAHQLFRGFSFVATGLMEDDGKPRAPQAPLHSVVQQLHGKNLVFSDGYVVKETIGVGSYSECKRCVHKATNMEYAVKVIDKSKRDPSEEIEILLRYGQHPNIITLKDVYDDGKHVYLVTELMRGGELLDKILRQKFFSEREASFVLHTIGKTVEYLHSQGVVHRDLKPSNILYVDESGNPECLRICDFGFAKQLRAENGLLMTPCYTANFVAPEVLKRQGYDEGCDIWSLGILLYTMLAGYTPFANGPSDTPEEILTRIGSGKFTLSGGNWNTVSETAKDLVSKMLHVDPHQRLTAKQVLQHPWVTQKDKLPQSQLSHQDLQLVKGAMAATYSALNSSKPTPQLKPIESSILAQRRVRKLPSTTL

[39] = molecular target: RPS6KB1 (human) (UniProt P23443)
RPS6KB1 (human), sequence (P23443 whole entry, looked up): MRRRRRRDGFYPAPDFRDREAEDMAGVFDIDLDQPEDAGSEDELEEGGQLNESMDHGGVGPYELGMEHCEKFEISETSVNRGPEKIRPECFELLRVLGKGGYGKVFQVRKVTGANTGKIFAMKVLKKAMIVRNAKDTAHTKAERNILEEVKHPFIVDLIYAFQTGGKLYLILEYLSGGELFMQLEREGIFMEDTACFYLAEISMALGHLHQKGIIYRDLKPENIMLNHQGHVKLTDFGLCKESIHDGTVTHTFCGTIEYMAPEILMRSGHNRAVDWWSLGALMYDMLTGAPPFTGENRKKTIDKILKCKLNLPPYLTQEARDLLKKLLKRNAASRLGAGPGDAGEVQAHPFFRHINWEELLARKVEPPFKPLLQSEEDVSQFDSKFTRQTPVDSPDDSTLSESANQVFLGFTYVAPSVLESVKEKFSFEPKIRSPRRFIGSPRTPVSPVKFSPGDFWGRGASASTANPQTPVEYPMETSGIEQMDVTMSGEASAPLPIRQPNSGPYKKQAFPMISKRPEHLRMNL

[40] = molecular target: SLK (human) (UniProt Q9H2G2)
[41] = molecular target: SRPK3 (human) (UniProt Q9UPE1)
[42] = molecular target: TBK1 (human) (UniProt Q9UHD2)

**Q.** Which residual activity [1] does the source give for O=C1NC(=O)c2c1c1c3ccccc3[nH]c1n1cncc21 here?
**A.** The residual activity was 103%.

**Q.** What about the residual activity [2] of the same molecule?
**A.** The residual activity was 29.7%.

**Q.** And the residual activity [3]?
**A.** The residual activity was 91.9%.

**Q.** And the residual activity [4]?
**A.** Its residual activity is 94.7%.

**Q.** And the residual activity [5]?
**A.** The residual activity was 52.3%.

**Q.** What about the residual activity [6] of the same molecule?
**A.** The residual activity was 51.6%.

**Q.** And the residual activity [7]?
**A.** Its residual activity is 96.5%.

**Q.** What about the residual activity [8] of the same molecule?
**A.** The residual activity was 65.9%.

**Q.** And the residual activity [9]?
**A.** Its residual activity is 64.1%.

**Q.** What about the residual activity [10] of the same molecule?
**A.** Its residual activity is 102%.

**Q.** And the residual activity [11]?
**A.** Its residual activity is 79.7%.

**Q.** And the residual activity [12]?
**A.** Its residual activity is 85%.

**Q.** And the residual activity [13]?
**A.** The residual activity was 101%.

**Q.** What about the residual activity [14] of the same molecule?
**A.** Its residual activity is 94.6%.

**Q.** And the residual activity [15]?
**A.** The residual activity was 82.6%.

**Q.** What about the residual activity [16] of the same molecule?
**A.** The residual activity was 140%.

**Q.** And the residual activity [17]?
**A.** The residual activity was 86.9%.

**Q.** What about the residual activity [18] of the same molecule?
**A.** The residual activity was 85.9%.

**Q.** What about the residual activity [19] of the same molecule?
**A.** The residual activity was 83.9%.

**Q.** What about the residual activity [20] of the same molecule?
**A.** The residual activity was 123%.

**Q.** What about the residual activity [21] of the same molecule?
**A.** Its residual activity is 29.8%.

**Q.** What about the residual activity [22] of the same molecule?
**A.** Its residual activity is 93.4%.

**Q.** And the residual activity [23]?
**A.** The residual activity was 48.2%.

**Q.** What about the residual activity [24] of the same molecule?
**A.** The residual activity was 69.4%.

**Q.** What about the residual activity [25] of the same molecule?
**A.** Its residual activity is 75.2%.

**Q.** What about the residual activity [26] of the same molecule?
**A.** Its residual activity is 99%.

**Q.** What about the residual activity [27] of the same molecule?
**A.** Its residual activity is 80.3%.

**Q.** And the residual activity [28]?
**A.** The residual activity was 87.9%.

**Q.** What about the residual activity [29] of the same molecule?
**A.** The residual activity was 89.8%.

**Q.** What about the residual activity [30] of the same molecule?
**A.** The residual activity was 26.1%.

**Q.** What about the residual activity [31] of the same molecule?
**A.** The residual activity was 84.4%.

**Q.** And the residual activity [32]?
**A.** The residual activity was 105%.

**Q.** And the residual activity [33]?
**A.** The residual activity was 84.8%.

**Q.** What about the residual activity [34] of the same molecule?
**A.** The residual activity was 61.4%.

**Q.** What about the residual activity [35] of the same molecule?
**A.** Its residual activity is 69.4%.

**Q.** And the residual activity [36]?
**A.** Its residual activity is 85.9% and 93.8%.

**Q.** And the residual activity [37]?
**A.** Its residual activity is 56.9%.

**Q.** What about the residual activity [38] of the same molecule?
**A.** The residual activity was 31.1%.

**Q.** And the residual activity [39]?
**A.** Its residual activity is 70.6%.

**Q.** What about the residual activity [40] of the same molecule?
**A.** Its residual activity is 87.8%.

**Q.** And the residual activity [41]?
**A.** The residual activity was 75.7%.

**Q.** And the residual activity [42]?
**A.** Its residual activity is 81.9%.

**Q.** How did the residual activity [1] turn out when Fc1ccc(-c2nc3n(c2-c2ccncc2)CCS3)cc1 was run?
**A.** The residual activity was 94.2%.

**Q.** And the residual activity [3]?
**A.** Its residual activity is 100%.

**Q.** What about the residual activity [4] of the same molecule?
**A.** Its residual activity is 95.2%.

**Q.** And the residual activity [5]?
**A.** Its residual activity is 90.5%.

**Q.** What about the residual activity [6] of the same molecule?
**A.** The residual activity was 58.8%.

**Q.** What about the residual activity [7] of the same molecule?
**A.** Its residual activity is 94.9%.

**Q.** And the residual activity [8]?
**A.** The residual activity was 104%.

**Q.** And the residual activity [9]?
**A.** Its residual activity is 101%.

**Q.** And the residual activity [10]?
**A.** The residual activity was 107%.

**Q.** And the residual activity [11]?
**A.** The residual activity was 96.1%.

**Q.** What about the residual activity [12] of the same molecule?
**A.** Its residual activity is 91.8%.

**Q.** What about the residual activity [13] of the same molecule?
**A.** Its residual activity is 95.7%.

**Q.** And the residual activity [14]?
**A.** The residual activity was 101%.

**Q.** And the residual activity [15]?
**A.** The residual activity was 108%.

**Q.** And the residual activity [16]?
**A.** Its residual activity is 94.3%.

**Q.** And the residual activity [17]?
**A.** The residual activity was 100%.

**Q.** And the residual activity [18]?
**A.** The residual activity was 104%.

**Q.** And the residual activity [19]?
**A.** The residual activity was 99%.

**Q.** What about the residual activity [20] of the same molecule?
**A.** The residual activity was 97.2%.

**Q.** And the residual activity [21]?
**A.** Its residual activity is 88.9%.

**Q.** What about the residual activity [22] of the same molecule?
**A.** The residual activity was 92.7%.

**Q.** And the residual activity [23]?
**A.** The residual activity was 97.7%.

**Q.** What about the residual activity [24] of the same molecule?
**A.** The residual activity was 109%.

**Q.** And the residual activity [25]?
**A.** Its residual activity is 103%.

**Q.** And the residual activity [26]?
**A.** The residual activity was 71.4%.

**Q.** And the residual activity [27]?
**A.** The residual activity was 105%.

**Q.** What about the residual activity [28] of the same molecule?
**A.** The residual activity was 41.1%.

**Q.** What about the residual activity [29] of the same molecule?
**A.** The residual activity was 99.5%.

**Q.** What about the residual activity [30] of the same molecule?
**A.** Its residual activity is 105%.

**Q.** And the residual activity [31]?
**A.** The residual activity was 98%.

**Q.** What about the residual activity [32] of the same molecule?
**A.** The residual activity was 90.3%.

**Q.** What about the residual activity [33] of the same molecule?
**A.** Its residual activity is 90.6%.

**Q.** And the residual activity [34]?
**A.** Its residual activity is 90.2%.

**Q.** And the residual activity [35]?
**A.** The residual activity was 94.7%.

**Q.** And the residual activity [36]?
**A.** Its residual activity is 103% and 95.9%.

**Q.** And the residual activity [37]?
**A.** Its residual activity is 102%.

**Q.** And the residual activity [38]?
**A.** Its residual activity is 100%.

**Q.** What about the residual activity [39] of the same molecule?
**A.** Its residual activity is 108%.

**Q.** What about the residual activity [40] of the same molecule?
**A.** Its residual activity is 110%.

**Q.** What about the residual activity [41] of the same molecule?
**A.** The residual activity was 98.5%.

**Q.** What about the residual activity [42] of the same molecule?
**A.** The residual activity was 90.6%.
